{"source": "patent US20030124590A1", "about": "“Carbohydrate response element binding protein and uses thereof” (priority 2001, published 2003)", "key": {"ChREBP": {"test_system": "ChREBP", "experiment": "Gel shift of purified ChREBP after incubation with PKA/PP2A in vitro", "type": "biochemical, rat", "conditions": "okadaic acid 10 nM", "experimental": "Gel shift assay. Gel mobility shift assays were performed as described by Liu et al. (Liu et al. (1993) J Biol Chem 268, 12787-12795). Double-stranded oligonucleotides (Table 1) were prepared by mixing equal amounts of the complementary single-stranded DNAs in 50 mM NaCl, heating to 70° C. for 15 min, and cooling to room temperature. The annealed oligonucleotides were labeled with ^32P in the presence of [γ^32P]-ATP (Amersham Pharmacia) and T4 polynucleotide kinase (New England Biolabs). Binding reactions were carried out in reaction mixture containing 20 mM Hepes (pH 7.9), 50 mM KCl, 5 mM DTT, 0.2 mM EDTA, 0.5 mM PMSF, 10% glycerol, 1 μg/μl of poly(dI-dC) (Amersham Pharmacia) and 1 μg/μl of nuclear extract. The reaction mixture was incubated at room temperature for 30 min and DNA-protein complexes were separated by electrophoresis in a 4.5% nondenaturing polyacrylamide gel.\nPurified ChREBP was incubated with PKA and/or PP2A in vitro and measured by gel-shift analysis with the [^32P]-radiolabeled WT oligonucleotide. Purified ChREBP was incubated for 20 min with ATP (1 mM), PKA (0.1 U/μl), 0.2 U/μl PKI, 0.025 U/μl PP2A and the PP2A inhibitor, okadaic acid (10 nM)."}, "PP2A": {"biological_target": "PP2A (Homo sapiens, UniProt P67775)", "sequence (P67775 whole entry)": "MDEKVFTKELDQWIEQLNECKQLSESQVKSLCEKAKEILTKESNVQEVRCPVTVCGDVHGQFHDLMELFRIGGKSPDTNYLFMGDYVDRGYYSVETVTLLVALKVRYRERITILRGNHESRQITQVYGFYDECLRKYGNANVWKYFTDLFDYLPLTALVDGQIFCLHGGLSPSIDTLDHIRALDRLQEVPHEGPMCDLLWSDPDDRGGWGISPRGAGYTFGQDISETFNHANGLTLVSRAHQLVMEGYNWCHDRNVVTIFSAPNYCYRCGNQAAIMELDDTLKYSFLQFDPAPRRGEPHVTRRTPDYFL", "conditions": "cited from earlier work"}, "[1]": {"biological_target": "T1, nuclear Xu-5-P activated PPase (Rattus norvegicus, UniProt P63331)", "T1 construct": "from tissue; host or cells: rat liver nuclear extract, DEAE-cellulose then Mono Q", "T1 sequence (P63331 whole entry)": "as the sequence (P67775 whole entry) above, with V5L counted along it", "T1 sequence (P56932 whole entry partner)": "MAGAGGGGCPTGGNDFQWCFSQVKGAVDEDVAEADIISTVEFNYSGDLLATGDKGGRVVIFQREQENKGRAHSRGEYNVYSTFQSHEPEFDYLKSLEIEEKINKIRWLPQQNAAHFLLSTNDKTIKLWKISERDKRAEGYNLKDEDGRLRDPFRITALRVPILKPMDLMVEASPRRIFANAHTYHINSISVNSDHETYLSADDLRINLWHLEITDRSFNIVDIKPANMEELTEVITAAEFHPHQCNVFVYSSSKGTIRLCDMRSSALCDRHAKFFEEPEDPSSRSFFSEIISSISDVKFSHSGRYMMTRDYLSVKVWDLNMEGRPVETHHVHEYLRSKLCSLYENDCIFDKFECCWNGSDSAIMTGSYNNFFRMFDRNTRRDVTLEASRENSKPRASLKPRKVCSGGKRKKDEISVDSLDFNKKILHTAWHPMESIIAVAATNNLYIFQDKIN", "T1 sequence (Q5XI34 1-589 partner)": "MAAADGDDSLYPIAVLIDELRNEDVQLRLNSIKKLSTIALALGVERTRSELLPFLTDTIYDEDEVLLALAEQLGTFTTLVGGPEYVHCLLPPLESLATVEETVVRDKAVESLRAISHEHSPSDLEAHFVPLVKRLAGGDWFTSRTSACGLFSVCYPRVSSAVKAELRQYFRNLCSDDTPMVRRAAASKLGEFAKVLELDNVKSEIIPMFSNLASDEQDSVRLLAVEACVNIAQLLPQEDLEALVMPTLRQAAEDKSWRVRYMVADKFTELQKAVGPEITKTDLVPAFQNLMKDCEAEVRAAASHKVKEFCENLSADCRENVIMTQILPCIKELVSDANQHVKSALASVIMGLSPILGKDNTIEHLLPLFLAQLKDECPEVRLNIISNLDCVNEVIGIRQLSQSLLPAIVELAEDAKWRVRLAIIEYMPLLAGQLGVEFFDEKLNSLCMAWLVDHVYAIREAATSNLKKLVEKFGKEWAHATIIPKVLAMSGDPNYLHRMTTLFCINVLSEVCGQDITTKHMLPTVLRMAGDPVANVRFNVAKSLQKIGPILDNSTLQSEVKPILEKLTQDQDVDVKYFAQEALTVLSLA", "experiment": "Protein phosphatase assay, nuclear Xu-5-P activated PPase of liver", "type": "biochemical", "conditions": "read-out: inhibition of nuclear Xu-5-P-activated PPase (Mono Q eluate); for inhibition at 0.001 µM: 1 nM okadaic acid, P3 substrate", "experimental": "Liver nuclear extracts were prepared as described in Example 1.\n(§1) Synthetic peptides corresponding to amino acids #187-201 ([…] “P1” peptide) (SEQ ID NO:64), #556-573 ([…], “P4” peptide) (SEQ ID NO:65), and #655-674 ([…]; “P3” peptide) (SEQ ID NO:66), of ChREBP were prepared by the Peptide Synthesis Service of University of Texas Southwestern Medical Center. These peptides were phosphorylated by 10 U of PKA for 6 h at 30° C. P4 peptide corresponding to 556-573 ([…]) (SEQ ID NO:65), was phosphorylated by 10 U of AMPK for 5 h at 30° C. The reaction mixtures were passed through on a Dowex AG1X8 column (0.5 cm×5 cm) which had been equilibrated with 30% acetic acid to remove residual [^32P]-ATP. The labeled peptides in the pass through fraction were lyophilized.\n(§2) Protein phosphatase activity was determined by the method of Deana et al (Deana et al. (1990) Biochem, Biophys. Acta. 1051: 199-202). The reaction mixture contained in a final volume of 50 μ1,20 mM MOPS, pH 7.0, 1 mM DTT, 25 μg of BSA, and ^32P-labeled substrate for 15 min at 30° C. The reaction was terminated by the addition of 10% trichloroacetic acid. Phosphate released was converted to a phosphomolybdic complex followed by organic solvent (isobutyl alcohol:heptane, 1:1) extraction of the complex. The reaction mixture was mixed thoroughly and centrifuged. An aliquot of the top layer was then added to 5 ml scintillation fluid and counted. One unit of protein phosphatase is defined as that amount which catalyzes the release of 1.0 μmol of ^32P/min at 30° C.\n(§3) These peptides were assayed with Mono Q purified cytosolic and nuclear PPases in the presence and absence of 50 μM Xu-5-P."}, "[2]": {"biological_target": "T2, cytosolic Xu-5-P activated PPase (Rattus norvegicus, UniProt P63331)", "T2 construct": "from tissue; host or cells: rat liver cytosolic extract, DEAE-cellulose then Mono Q", "T2 sequence (P63331 whole entry)": "as the sequence (P67775 whole entry) above, with V5L counted along it", "T2 sequence (P56932 whole entry partner)": "as the sequence (P56932 whole entry partner) above", "T2 sequence (Q5XI34 1-589 partner)": "as the sequence (Q5XI34 1-589 partner) above", "experiment": "Protein phosphatase assay, cytosolic Xu-5-P activated PPase of liver", "type": "biochemical", "conditions": "for inhibition of cytosolic PPase (MonoQ eluate): okadaic acid concentration not stated (below 10 nM)", "experimental": "Liver was homogenized in a motor-driven Potter-Elvehjem homogenizer in 1 volume of extraction buffer containing 10 mM Hepes (pH 7.9), 10 mM KCl, 0.1 mM EDTA, 0.74 mM spermidine, 0.25 M sucrose, 50 mM imidazole, 1 mM dithiothreitol (DTT), 4 mM phenylmethanesulfonyl fluoride, and 1 mM benzamidine, and the extract was centrifuged at 10,000×g for 30 min.\nas §1, §2, §3"}}, "note": "Where two headings read alike, the source gives them in different places.", "data": [{"smiles": "C=C1[C@@H](O)[C@@H]2O[C@]3(CC[C@H](/C=C/[C@@H](C)[C@@H]4CC(C)=C[C@@]5(O[C@H](C[C@@](C)(O)C(=O)O)CC[C@H]5O)O4)O3)CC[C@H]2O[C@@H]1[C@@H](O)C[C@H](C)[C@H]1O[C@@]2(CCCCO2)CC[C@H]1C", "note": "[okadaic acid]", "values": [{"measurement": "reactivation of phosphorylated ChREBP by PP2A", "setting": "ChREBP", "value": "blocked"}, {"measurement": "IC50", "setting": "PP2A", "value": 1, "unit": "nM"}, {"measurement": "inhibition at 0.001 µM", "setting": "[1]; absence of Xu-5-P", "value": 63, "unit": "%"}, {"measurement": "inhibition at 0.001 µM", "setting": "[1]; presence of Xu-5-P", "value": 70, "unit": "%"}, {"measurement": "inhibition at 0.01 µM", "setting": "[1]; 10 nM okadaic acid", "value": "> 95", "unit": "%"}, {"measurement": "inhibition of cytosolic PPase (MonoQ eluate)", "setting": "[2]; absence of Xu-5-P", "value": "approximately 65%"}, {"measurement": "inhibition of cytosolic Xu-5-P activated PPase (in words)", "setting": "[2]; okadaic acid 10 nM (absence and presence of Xu-5-P), cantharidic acid 500 nM, deltamethrin 300 nM", "value": "completely"}, {"measurement": "inhibition of cytosolic PPase (MonoQ eluate)", "setting": "[2]; presence of Xu-5-P", "value": "~50", "unit": "%"}]}]}
